These results are taken from US20020061838A1, “Peptide pharmaceutical formulations” (priority 2000, published 2002).

For series [1] the following is noted: pH 7.4; cited from earlier work.
Series [2] is described as follows: Long-term stability in the preferred embodiment (HPLC and/or bioactivity).
Method: The vials containing 1 mL of formulated drug were put into thermostatted chambers and assayed for % peptide remaining as a function of time after storage at different temperatures. Bioactivity of the formulations at the time points was also measured.
GRF activity was assessed similarly using a cell line containing an expressed GRF receptor and monitoring the response of cell to GRF by the cAMP-responsive secreted alkaline phosphatase reporter system.
The nature of series [3]: Stability of GLP-1, PTH and GRF in the preferred formulation by reversed phase HPLC (percent peptide remaining). As to conditions: 10 mM acetate; for Percent peptide remaining: 5.07% (w/v) D-mannitol, pH 4.7; for stability: 4, 8, and 10 mg/mL, pH 4.7, 5.07% D-mannitol.
Method: The vials were stored at the indicated temperatures for the indicated times. Samples were removed and assayed for the loss of parent peptide by HPLC, using a reversed phase C18 (1×15 cm) analytical column. Samples (10 μl) were injected directly and resolved with a gradient of acetonitrile in water, in the presence of 0.1% trifluoroacetic acid. Percent peptide remaining at the times indicated was calculated as the area of the intact peptide divided by the total area of the intact peptide plus that of the decomposition products times 100.
Series [4] in a line: Total GRF in plasma after intravenous bolus in a rat. In kind it is in vivo. The following applies: intravenous bolus of 20 μg, 10 mM sodium acetate, 5.07% D-mannitol, pH 4.7.
Method: Total GRF detected in the plasma of a rat following intravenous administration of 20 μg of GRF in the preferred formulation (4 mg/mL GRF dissolved in 10 mM sodium acetate, 5.07% D-mannitol, adjusted to pH 4.7).
Series [5] in a line: Tolerability and response after subcutaneous or intravenous delivery of the formulations in humans.

Take PTH(1-34)OH: the “solubility at physiological pH” value in series [1] was “up to 4 mg/mL”. The “period over which the peptide was stable” value in series [2] (about 0.005 to 1.0 mg/mL, 4° C., inventive formulations) is 4 months.

In the case of `CC[C@H](C)[C@H](NC(=O)[C@H](C)NC(=O)[C@H](CC(=O)O)NC(=O)[C@H](C)NC(=O)[C@@H](N)Cc1ccc(O)cc1)C(=O)N[C@@H](Cc1ccccc1)C(=O)N[C@H](C(=O)N[C@@H](CC(N)=O)C(=O)N[C@@H](CO)C(=O)N[C@@H](Cc1ccc(O)cc1)C(=O)N[C@@H](CCCNC(=N)N)C(=O)N[C@@H](CCCCN)C(=O)N[C@H](C(=O)N[C@@H](CC(C)C)C(=O)NCC(=O)N[C@@H](CCC(N)=O)C(=O)N[C@@H](CC(C)C)C(=O)N[C@@H](CO)C(=O)N[C@@H](C)C(=O)N[C@@H](CCCNC(=N)N)C(=O)N[C@@H](CCCCN)C(=O)N[C@@H](CC(C)C)C(=O)N[C@@H](CC(C)C)C(=O)N[C@@H](CCC(N)=O)C(=O)N[C@@H](CC(=O)O)C(=O)N[C@H](C(=O)N[C@@H](CCSC)C(=O)N[C@@H](CO)C(=O)N[C@@H](CCCNC(=N)N)C(=O)N[C@@H](CCC(N)=O)C(=O)N[C@@H](CCC(N)=O)C(=O)NCC(=O)N[C@@H](CCC(=O)O)C(=O)N[C@@H](CO)C(=O)N[C@@H](CC(N)=O)C(=O)N[C@@H](CCC(N)=O)C(=O)N[C@@H](CCC(=O)O)C(=O)N[C@@H](CCCNC(=N)N)C(=O)NCC(=O)N[C@@H](C)C(=O)N[C@@H](CCCNC(=N)N)C(=O)N[C@@H](C)C(=O)N[C@@H](CCCNC(=N)N)C(=O)N[C@@H](CC(C)C)C(N)=O)[C@@H](C)CC)C(C)C)[C@@H](C)O` [GRF, GRF(1-44)amide], the Percent peptide remaining was determined as 98% in series [3] (4 mg/mL, 14 days, 4° C.); 96% in series [3] (4 mg/mL, 14 days, 25° C.); 63% in series [3] (4 mg/mL, 14 days, 50° C.); 98% in series [3] (8 mg/mL, 14 days, 4° C.); 96% in series [3] (8 mg/mL, 14 days, 25° C.); 63% in series [3] (8 mg/mL, 14 days, 50° C.). The Percent peptide remaining is 98% in series [3] (10 mg/mL, 14 days, 4° C.); 96% in series [3] (10 mg/mL, 14 days, 25° C.); 63% in series [3] (10 mg/mL, 14 days, 50° C.). The stability entry in series [3] (25° C., 14 days) is recorded as “at least 96%”; in series [3] (50° C., 14 days), 63%; in series [3] (−20° C. to 4° C., over 14 days) it was “at least 98%”. Moreover, the “appearance of peptide in blood plasma” value in series [4] is recorded as “rapidly appears in the blood plasma”. For the same compound, the “stability (additional formulations, extended periods)” value in series [2] (4-6 weeks at 25° C.) and in series [2] (12 months at 4° C.) was “at least 90%” throughout. Moreover, in series [2] (formulations where the peptide is GRF or PTH, Drawings 3, 5), the “stability compared with the GLP-1 formulations” value is “comparable stability”. Besides, the complications of delivery entry in series [5] (human subjects, intravenous and subcutaneous delivery, preferred formulations) is recorded as “no significant complications”. Further, the “discomfort at the injection site” value in series [5] (humans, subcutaneous, about 1 mL) was “no apparent discomfort”.
